Laboratory results published in publication PMC6704710, “Preclinical evaluation of 3D185, a novel potent inhibitor of FGFR1/2/3 and CSF-1R, in FGFR-dependent and macrophage-dominant cancer models” (Journal of Experimental & Clinical Cancer Research : CR, 2019).

What was measured:
[1] = target: T1, CDK9/cyclin T1(h) (Homo sapiens, UniProt P50750); experiment: Eurofins kinase panel; type: biochemical; conditions: read-out: Inhibition rate (%)
T1 construct: purchased Eurofins (KinaseProfiler)

[2] = target: T2, Aurora-A(h) (Homo sapiens, UniProt O14965); experiment: Eurofins kinase panel; type: biochemical; conditions: read-out: Inhibition rate (%)
T2 construct: purchased Eurofins (KinaseProfiler)
T2 sequence (O14965 1-403): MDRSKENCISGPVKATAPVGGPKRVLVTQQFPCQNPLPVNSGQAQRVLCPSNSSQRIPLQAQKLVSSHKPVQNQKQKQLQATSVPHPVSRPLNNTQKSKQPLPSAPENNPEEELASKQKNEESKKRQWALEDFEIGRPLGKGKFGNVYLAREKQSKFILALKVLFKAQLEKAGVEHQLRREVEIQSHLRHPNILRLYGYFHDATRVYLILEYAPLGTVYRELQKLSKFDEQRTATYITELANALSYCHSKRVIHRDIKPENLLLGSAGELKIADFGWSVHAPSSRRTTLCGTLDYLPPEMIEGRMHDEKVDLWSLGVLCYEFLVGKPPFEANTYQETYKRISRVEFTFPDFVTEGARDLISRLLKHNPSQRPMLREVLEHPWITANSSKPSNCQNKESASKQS

[3] = tested on: NCI-H1581 subcutaneous xenograft; type: in vivo; conditions: 50 mg/kg oral once daily 14 days
Procedure: […]. When the tumor volume reached 100–150 mm^3, the mice were randomly assigned to the vehicle control group (n = 12) or a treatment group (n = 6 per group). […].
The tumors were measured twice per week using a microcaliper. Tumor volume (TV) was calculated as follows: TV = (length × width^2)/2. In addition, the individual relative tumor volume (RTV) was calculated as follows: RTV = Vt / V0, where Vt is the volume on a particular day and V0 is the volume at the beginning of the treatment. The RTV is shown on the indicated days as the […] ± SEM for the indicated groups of mice. […]

[4] = tested on: OPM2; experiment: Cell proliferation assay; type: cell-based, human; conditions: Homo sapiens, OPM-2; 72 h, mean ± SD
Procedure: (§1) The cancer cell lines indicated in Figure 3 were seeded in 96-well plates at a low density in growth medium. The next day, appropriate controls or the designated concentrations of the compounds were added to each well, and the cells were incubated for 72 h. HUVECs (passage 3) were seeded in 96-well plates in growth medium overnight and transferred to serum-free medium for 24 h. The following day, appropriate controls or the designated concentrations of the compounds were added to each well, and 100 ng/mL growth factor (bFGF or VEGF) was added to the indicated wells. The cells were incubated for 48 h. Finally, cell proliferation was determined using a sulforhodamine B (SRB) assay or a cell counting kit-8 (CCK-8) assay. […] IC50 values for proliferation curves were calculated using a 4-parameter logistic nonlinear regression model with SoftMax Pro Software (Molecular Devices, San Jose, USA).

[5] = tested on: KATOIII; experiment: Cell proliferation assay; type: cell-based, human; conditions: Homo sapiens, KATO III; 72 h, mean ± SD
Procedure: as §1

[6] = tested on: SNU16; experiment: Cell proliferation assay; type: cell-based, human; conditions: Homo sapiens, SNU-16; 72 h, mean ± SD
Procedure: as §1

[7] = tested on: RT112; experiment: Cell proliferation assay; type: cell-based, human; conditions: Homo sapiens, RT-112; 72 h, mean ± SD
Procedure: as §1

[8] = tested on: HUH7; experiment: Cell proliferation assay; type: cell-based, human; conditions: Homo sapiens, Huh-7; 72 h, mean ± SD
Procedure: as §1

[9] = tested on: KG-1; experiment: Cell proliferation assay; type: cell-based, human; conditions: Homo sapiens, KG-1; 72 h, mean ± SD
Procedure: as §1

[10] = tested on: SUM52PE; experiment: Cell proliferation assay; type: cell-based, human; conditions: Homo sapiens, SUM52PE; 72 h, mean ± SD
Procedure: as §1

[11] = tested on: UMUC14; experiment: Cell proliferation assay; type: cell-based, human; conditions: Homo sapiens, UMUC14; 72 h, mean ± SD
Procedure: as §1

[12] = tested on: NCI-H1581; experiment: Cell proliferation assay; type: cell-based, human; conditions: Homo sapiens, NCI-H1581; 72 h, mean ± SD
Procedure: as §1

[13] = tested on: NCI-H716; experiment: Cell proliferation assay; type: cell-based, human; conditions: Homo sapiens, NCI-H716; 72 h, mean ± SD
Procedure: as §1

[14] = tested on: PBMC (CSF-1); experiment: Macrophage survival (CCK-8); type: cell-based; conditions: Homo sapiens, 168 h, 7 days, mean ± SD
Procedure: Murine bone marrow and human monocytes were stimulated with CSF-1 for 7 days together with the indicated inhibitor, and cell viability was evaluated by the CCK-8 assay. The IC50 values are shown as the mean ± SD (nM) from two independent tests. B-E, To test the impact of 3D185 on the polarization of CSF-1-induced macrophages, murine bone marrow cells and human monocytes were induced to mature into macrophages with CSF-1 for 7 days and then stimulated with CSF-1, IL-4 and IL-13 for an additional 48 h. The expression of the markers MHC-II (b), CD86 (c), and CD206 (d) on induced murine macrophages and CD206 expression on induced human macrophages (e) were determined by flow cytometry, and the mean fluorescence intensity (MFI) was analyzed with FlowJo. Representative data from two independent experiments. f Murine bone marrow cells (left panel) and human monocytes (right panel) were induced to mature into macrophages with CSF-1 for 7 days and then stimulated with CSF-1, IL-4 and IL-13 and treated with vehicle or the indicated inhibitor for an additional 48 h. Then, all cells were collected to count viable cells by staining with trypan blue
Murine bone marrow-derived macrophages (BMDMs) and PBMCs were used for cell viability studies. […] Cell viability was measured using the CCK-8 assay. For IL-4/IL-13-induced macrophage survival analysis, viable cells were counted by trypan blue exclusion.

[15] = target: T3, GSK3β(h) (Homo sapiens, UniProt P49841); experiment: Eurofins kinase panel; type: biochemical; conditions: read-out: Inhibition rate (%)
T3 construct: purchased Eurofins (KinaseProfiler)
T3 sequence (P49841 whole entry): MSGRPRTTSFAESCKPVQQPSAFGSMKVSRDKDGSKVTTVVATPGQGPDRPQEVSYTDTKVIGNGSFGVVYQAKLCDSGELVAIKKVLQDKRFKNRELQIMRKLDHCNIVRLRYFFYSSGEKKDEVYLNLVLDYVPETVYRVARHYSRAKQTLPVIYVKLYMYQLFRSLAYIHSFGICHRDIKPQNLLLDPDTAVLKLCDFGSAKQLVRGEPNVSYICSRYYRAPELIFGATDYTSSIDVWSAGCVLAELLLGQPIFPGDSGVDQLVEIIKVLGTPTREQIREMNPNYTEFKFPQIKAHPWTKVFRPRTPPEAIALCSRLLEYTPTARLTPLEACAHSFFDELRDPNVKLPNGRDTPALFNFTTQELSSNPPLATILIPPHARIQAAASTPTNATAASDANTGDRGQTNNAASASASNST

T1 sequence (P50750 whole entry): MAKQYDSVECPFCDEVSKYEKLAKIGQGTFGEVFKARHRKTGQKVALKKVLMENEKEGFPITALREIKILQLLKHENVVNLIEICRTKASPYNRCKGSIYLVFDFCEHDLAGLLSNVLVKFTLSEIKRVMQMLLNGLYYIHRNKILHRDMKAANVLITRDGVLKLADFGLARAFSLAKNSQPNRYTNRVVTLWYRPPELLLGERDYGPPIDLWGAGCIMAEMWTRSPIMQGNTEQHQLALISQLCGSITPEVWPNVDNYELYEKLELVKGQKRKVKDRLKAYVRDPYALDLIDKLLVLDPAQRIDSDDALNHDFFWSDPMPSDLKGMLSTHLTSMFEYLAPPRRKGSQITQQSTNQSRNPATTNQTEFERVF
T1 sequence (O60563 whole entry partner): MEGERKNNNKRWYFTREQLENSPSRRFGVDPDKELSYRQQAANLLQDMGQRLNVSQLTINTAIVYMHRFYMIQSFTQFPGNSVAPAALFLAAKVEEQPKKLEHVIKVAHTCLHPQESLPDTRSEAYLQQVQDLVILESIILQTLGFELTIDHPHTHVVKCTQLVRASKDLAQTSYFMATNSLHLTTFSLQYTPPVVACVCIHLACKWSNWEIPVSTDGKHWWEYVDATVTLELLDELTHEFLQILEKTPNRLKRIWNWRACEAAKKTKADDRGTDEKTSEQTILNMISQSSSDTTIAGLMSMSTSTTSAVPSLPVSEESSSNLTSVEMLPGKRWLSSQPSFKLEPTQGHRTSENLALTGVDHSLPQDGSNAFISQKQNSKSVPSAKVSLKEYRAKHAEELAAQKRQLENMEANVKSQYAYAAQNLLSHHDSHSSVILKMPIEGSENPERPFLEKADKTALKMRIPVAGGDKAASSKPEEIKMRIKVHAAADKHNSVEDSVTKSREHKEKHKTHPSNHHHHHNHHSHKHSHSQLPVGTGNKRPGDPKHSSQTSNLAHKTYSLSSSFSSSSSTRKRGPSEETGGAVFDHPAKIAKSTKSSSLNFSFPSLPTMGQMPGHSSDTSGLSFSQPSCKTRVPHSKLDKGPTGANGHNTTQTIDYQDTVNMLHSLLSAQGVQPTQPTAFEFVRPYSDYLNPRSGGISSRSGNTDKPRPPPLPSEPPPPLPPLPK

COc1cc(OC)c(Cl)c(-c2ccc3c(NC(=O)c4ccc(N5CCNC(C)(C)C5)cc4)n[nH]c3n2)c1Cl [3D185]
inhibition at 0.01 µM ([1]; 10 nM): -12% | inhibition at 0.1 µM ([1]; 100 nM): 0% | inhibition at 1 µM ([1]; 1000 nM): 4% | inhibition at 0.01 µM ([2]; 10 nM): 4% | inhibition at 0.1 µM ([2]; 100 nM): 5% | inhibition at 1 µM ([2]; 1000 nM): 3% | tumor growth inhibition rate [3]: 96.4% | IC50 [4]: 19.2 ± 4.3 nM | IC50 [5]: 11.3 ± 0.2 nM | IC50 [6]: 0.9 ± 0.1 nM | IC50 [7]: 36.8 ± 6.8 nM | IC50 [8]: 49.8 ± 1.5 nM | IC50 [9]: 2 ± 0.4 nM | IC50 [10]: 2 nM | IC50 [11]: 30.9 ± 5.3 nM | IC50 [12]: 17.3 ± 5.7 nM | IC50 [13]: 3 ± 0.4 nM | IC50 [14]: 118 nM | inhibition at 0.01 µM ([15]; 10 nM): 0% | inhibition at 0.1 µM ([15]; 100 nM): 5% | inhibition at 1 µM ([15]; 1000 nM): -5%
